Patent US9242984B2, “Pyrazolyl derivatives as Syk inhibitors” (Merck Sharp & Dohme Corp., priority 2012, dated 2016)

target: T1, recombinant human Syk (GST-hSyk fusion protein) (Homo sapiens, UniProt P43405); assay: Homogeneous Time-Resolved Fluorescence (HTRF) assay for the recombinant human Syk enzyme; type: biochemical; conditions: IC50 class; 10-dose titration, 25 μM ATP; read-out: rhSYK Activity
T1 construct: purchased Carna Biosciences 08-176
Description: Syk inhibition may be determined using the following assay protocol:
Homogeneous Time-Resolved Fluorescence (HTRF) Assay for the Recombinant Human Syk Enzyme:
A recombinant GST-hSyk fusion protein was used to measure potency of compounds to inhibit human Syk activity. The recombinant human GST-Syk (Carna Biosciences #08-176) (5 pM final concentration) was incubated with various concentrations of the inhibitor diluted in DMSO (0.1% final concentration) for 10 minutes at room temperature in 15 mM Tris-HCl (pH 7.5), 0.01% tween 20, 2 mM DTT in 384 well plate format. To initiate the reaction the biotinylated substrate peptide (250 nM final concentration) that contains the phosphorylation site for Syk was added with magnesium (5 mM final concentration) and ATP (25 μM final concentration). Final volume of the reaction was 10 μL. Phosphorylation of the peptide was allowed to proceed for 45 minutes at room temperature. To quench the reaction and detect the phosphorylated product, 2 nM of a Europium-anti-phosphotyrosine antibody (Perkin Elmer #AD0161) and 70 nM SA-APC (Perkin-Elmer #CR130-100) were added together in 15 mM Tris pH 7.5, 40 mM EDTA, 0.01% tween 20. Final volume of the quenching solution was 10 μL. The resulting HTRF signal was measured after 30 minutes on an EnVision (Perkin-Elmer) reader using a time-resolved fluorescence protocol. IC50 was determined following 10-dose titration (10 μM to 0.508 nM) and four parameter logistic curve fitting using the Merck Assay Data Analyzer. The rhSyk activity (IC50) is expressed as +++(100 nM or less), ++(between 100 and 1000 nM), +(between 1 and 10 μM).

IC50, ≤ 100 nM:
Cc1cc(Nc2nccc(C(F)(F)F)n2)cc(-c2cnn(CC3OC(=O)NC3C(C)C)c2)c1 (single isomer, unassigned) [Example 23.5, 4-(1-methylethyl)-5-{[4-(3-methyl-5-{[4-(trifluoromethyl)pyrimidin-2-yl]amino}phenyl)-1H-pyrazol-1-yl]methyl}-1,3-oxazolidin-2-one]
Cc1cc(Nc2nccc(C(F)(F)F)n2)cc(-c2cnn(CC3OC(=O)NC3C(C)C)c2)c1 (single isomer, unassigned) [Example 23.6, 4-(1-methylethyl)-5-{[4-(3-methyl-5-{[4-(trifluoromethyl)pyrimidin-2-yl]amino}phenyl)-1H-pyrazol-1-yl]methyl}-1,3-oxazolidin-2-one]
Cc1cc(Nc2nccc(C)n2)cc(-c2cnn(CC3OC(=O)NC3C)c2)c1 (single isomer, unassigned) [Example 23.7, 4-methyl-5-[(4-{3-methyl-5-[(4-methylpyrimidin-2-yl)amino]phenyl}-1H-pyrazol-1-yl)methyl]-1,3-oxazolidin-2-one]
Cc1cc(Nc2nccc(C)n2)cc(-c2cnn(CC3OC(=O)NC3C)c2)c1 (single isomer, unassigned) [Example 23.8, 4-methyl-5-[(4-{3-methyl-5-[(4-methylpyrimidin-2-yl)amino]phenyl}-1H-pyrazol-1-yl)methyl]-1,3-oxazolidin-2-one]
Cc1cc(Nc2nccc(C(F)F)n2)cc(-c2cnn(CC3OC(=O)NC3C)c2)c1 (single isomer, unassigned) [Example 23.9, 5-{[4-(3-{[4-(difluoromethyl)pyrimidin-2-yl]amino}-5-methylphenyl)-1H-pyrazol-1-yl]methyl}-4-methyl-1,3-oxazolidin-2-one]
Cc1cc(Nc2nccc(C(F)F)n2)cc(-c2cnn(CC3OC(=O)NC3C)c2)c1 (single isomer, unassigned) [Example 23.10, 5-{[4-(3-{[4-(difluoromethyl)pyrimidin-2-yl]amino}-5-methylphenyl)-1H-pyrazol-1-yl]methyl}-4-methyl-1,3-oxazolidin-2-one]
Cc1cc(Nc2nccc(C(C)(F)F)n2)cc(-c2cnn(CC3OC(=O)NC3C)c2)c1 (single isomer, unassigned) [Example 23.12, 5-{[4-(3-{[4-(1,1-difluoroethyl)pyrimidin-2-yl]amino}-5-methylphenyl)-1H-pyrazol-1-yl]methyl}-4-methyl-1,3-oxazolidin-2-one]
Cc1cc(Nc2nccc(C(F)F)n2)cc(-c2cnn(CC3OC(=O)NC3C)c2)c1 (single isomer, unassigned) [Example 23.13, 5-{[4-(3-{[4-(difluoromethyl)pyrimidin-2-yl]amino}-5-methylphenyl)-1H-pyrazol-1-yl]methyl}-4-methyl-1,3-oxazolidin-2-one]
Cc1cc(Nc2nccc(C(F)F)n2)cc(-c2cnn(CC3OC(=O)NC3C)c2)c1 (single isomer, unassigned) [Example 23.14, 5-{[4-(3-{[4-(difluoromethyl)pyrimidin-2-yl]amino}-5-methylphenyl)-1H-pyrazol-1-yl]methyl}-4-methyl-1,3-oxazolidin-2-one]
Cc1cc(Nc2nccc(C)n2)cc(-c2cnn(CC3OC(=O)NC3C(C)C)c2)c1 (single isomer, unassigned) [Example 23.15, 4-(1-methylethyl)-5-[(4-{3-methyl-5-[(4-methylpyrimidin-2-yl)amino]phenyl}-1H-pyrazol-1-yl)methyl]-1,3-oxazolidin-2-one]
Cc1cc(Nc2nccc(C)n2)cc(-c2cnn(CC3OC(=O)NC3C(C)C)c2)c1 (single isomer, unassigned) [Example 23.16, 4-(1-methylethyl)-5-[(4-{3-methyl-5-[(4-methylpyrimidin-2-yl)amino]phenyl}-1H-pyrazol-1-yl)methyl]-1,3-oxazolidin-2-one]
